Structures can show the parent of a compound that is named as a salt.
The compounds below were run against serotonin 5-HT2C receptor (VSV type isoform) stably expressed in CHO cell (Homo sapiens, UniProt P28335, I156V/I160V/N158S) (assay: cell-based). Conditions: 1 μM.
Assay type: cell-based

serotonin 5-HT2C receptor (VSV type isoform) stably expressed in CHO cell, sequence (P28335 33-458 I156V/N158S/I160V limits assumed): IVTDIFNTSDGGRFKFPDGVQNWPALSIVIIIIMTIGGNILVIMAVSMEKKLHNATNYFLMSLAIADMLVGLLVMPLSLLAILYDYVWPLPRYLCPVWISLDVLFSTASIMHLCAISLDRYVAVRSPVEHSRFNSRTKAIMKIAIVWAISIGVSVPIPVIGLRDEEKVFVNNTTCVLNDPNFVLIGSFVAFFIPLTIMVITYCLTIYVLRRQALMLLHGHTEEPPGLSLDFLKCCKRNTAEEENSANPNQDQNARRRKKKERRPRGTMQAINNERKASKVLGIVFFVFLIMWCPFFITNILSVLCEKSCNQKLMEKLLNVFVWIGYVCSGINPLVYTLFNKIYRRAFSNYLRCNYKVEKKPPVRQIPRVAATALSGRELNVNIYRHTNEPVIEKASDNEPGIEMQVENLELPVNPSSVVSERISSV

SMILES | ratio relative to maximum response by 5-HT (1 μM)
CC(C)Oc1ccc2c(n1)OCCNC2.CC(C)Oc1ccc2c(n1)OCCNC2.O=C(O)CCC(=O)O [Example 5, 8-isopropoxy-2,3,4,5-tetrahydropyrido[3,2-f][1,4]oxazepine 0.5 succinate] | 97.7
CC(Oc1ccc2c(n1)OCCNC2)C1CC1.CC(Oc1ccc2c(n1)OCCNC2)C1CC1.O=C(O)CCC(=O)O (centres unmarked) [Example 16, 8-(1-cyclopropylethoxy)-2,3,4,5-tetrahydropyrido[3,2-f][1,4]oxazepine 0.5 succinate] | 98.8
CC(Oc1ccc2c(n1)OCCNC2)C1CC1.CC(Oc1ccc2c(n1)OCCNC2)C1CC1.O=C(O)CCC(=O)O (single isomer, unassigned; (+)) [Example 36, (+)-8-(1-cyclopropylethoxy)-2,3,4,5-tetrahydropyrido[3,2-f][1,4]oxazepine 0.5 succinate] | 104.7
CC(Oc1ccc2c(n1)OCCNC2)C1CC1.CC(Oc1ccc2c(n1)OCCNC2)C1CC1.O=C(O)CCC(=O)O (single isomer, unassigned; (-)) [Example 35, (−)-8-(1-cyclopropylethoxy)-2,3,4,5-tetrahydropyrido[3,2-f][1,4]oxazepine 0.5 succinate] | 93.7

Same assay, conditions: CHO; read-out: ratio relative to maximum response by 5-HT (1 μM)

SMILES | Emax [%]
FC1(F)CCC(Oc2ccc3c(n2)OCCNC3)CC1 [Example 23, 8-[(4,4-difluorocyclohexyl)oxy]-2,3,4,5-tetrahydropyrido[3,2-f][1,4]oxazepine hydrochloride] | 83.8
CC[C@@H](C)Oc1ccc2c(n1)OCCNC2 [Example 27, 8-{[(1R)-1-methylpropyl]oxy}-2,3,4,5-tetrahydropyrido[3,2-f][1,4]oxazepine hydrochloride] | 99.8
CC(C)[C@H](C)Oc1ccc2c(n1)OCCNC2 [Example 24, 8-{[(1S)-1,2-dimethylpropyl]oxy}-2,3,4,5-tetrahydropyrido[3,2-f][1,4]oxazepine hydrochloride] | 94.7
CC(C)Sc1ccc2c(n1)OCCNC2 [Example 37, 8-(isopropylthio)-2,3,4,5-tetrahydropyrido[3,2-f][1,4]oxazepine hydrochloride] | 94.5
c1ccc(Oc2ccc3c(n2)OCCNC3)cc1 [Example 28, 8-phenoxy-2,3,4,5-tetrahydropyrido[3,2-f][1,4]oxazepine hydrochloride] | 91.2
CC(C)COc1ccc2c(n1)OCCNC2 [Example 3, 8-isobutoxy-2,3,4,5-tetrahydropyrido[3,2-f][1,4]oxazepine hydrochloride] | 101
CCOc1ccc2c(n1)OCCNC2 [Example 13, 8-ethoxy-2,3,4,5-tetrahydropyrido[3,2-f][1,4]oxazepine hydrochloride] | 97.4
CC(C)[C@@H](C)Oc1ccc2c(n1)OCCNC2 [Example 25, 8-{[(1R)-1,2-dimethylpropyl]oxy}-2,3,4,5-tetrahydropyrido[3,2-f][1,4]oxazepine hydrochloride] | 98.6
CC(C)(C)Oc1ccc2c(n1)OCCNC2 [Example 1, 8-tert-butoxy-2,3,4,5-tetrahydropyrido[3,2-f][1,4]oxazepine] | 98.6
CC[C@H](C)Oc1ccc2c(n1)OCCNC2 [Example 26, 8-{[(1S)-1-methylpropyl]oxy}-2,3,4,5-tetrahydropyrido[3,2-f][1,4]oxazepine hydrochloride] | 97.6

Reference: US8329687B2, “Pyridooxazepine derivative and use thereof” (Takeda Pharmaceutical Company Limited, priority 2007, dated 2012)
